The test system of data set [1] is Glioblastoma multiforme (GBM). As to conditions: human, in vivo; cited from earlier work.
The conditions of data set [2]: rats and monkeys; cited from earlier work.
Data set [3] relates to U87MG cells. As to the kind of experiment: MTT cytotoxicity assay. The data set is classed as cell-based. As to conditions: Homo sapiens, U-87 MG, 24 h, read-out: IC50 (50% reduction of U87MG cell viability). As to the method:
The cell viability was assessed using a 3-(4,5-dimethylthiazol-2-yl)-2, 5-diphenyltetrazolium bromide (MTT) assay (Sigma-Aldrich, St. Louis, Mo., USA), and trypan blue dye exclusion method (TBDE). For the MTT assay, U87MG cells were cultured in a 96 well-plate at a density of 5×10^3 per well and incubated at 37° C. under 5% CO2 for 24 h. Then, the cells were treated with different concentrations of F16 (0.1-100 μM) and TMZ (0.1-500 μM) for 24 h. At the end of treatment, the old medium was aspirated, and 10 μL of MTT (0.5 mg/mL in PBS) was added to each well and the cells were incubated at 37° C. for an additional 3 h. Finally, the MTT solution was removed, and 100 μL of dimethyl sulfoxide (DMSO) was added to each well. The plate was gently rotated on an orbital shaker for 10 min to completely dissolve the precipitation and the absorbance was measured at 570 nm using Microplate Reader (VersaMax, Molecular Devices, Sunnyvale, Calif., USA). For the TBDE method, U87MG cells were cultured in a 24 well-plate at a density of 5×10^4 per well and incubated at 37° C. under 5% CO2 for 48 h. Then, the cells were treated with different concentrations of F16 (0.1-100 μM) and TMZ (10-1000 μM). […] The viable cells were counted with a Bio-Rad TC20™ Automated Cell Counter (Hercules, Calif., USA)

Data set [4] relates to U87MG cells. The data set is described as follows: Trans-well migration assay. Format: cell-based, human. As to conditions: 24 h; F16 20 μM, TMZ 400 μM. As to the method: The migration ability of U87MG cell was determined using both scratch and trans-well assays. For the scratch assay, monolayer of U87MG cells was grown on 6-well plates close to 80% confluency. Using a sterile 200 μL tip, a single straight line scratch was made in each well. The wells were washed with phosphate-buffered saline (PBS) and refilled with growth medium containing various concentrations of F16 (0.1-20 μM) and TMZ (10-400 μM). The images were captured using Leica microscope at 12 h and 24 h post-scratch. For the trans-well migration assay, 6.5 mm trans-well plates polycarbonate membrane inserts (Corning, N.Y., USA) with 8 μm pore size were used. After an initial equilibrium period, 5×10^4 cells suspended in 100 μL basal medium without FBS were added to the upper compartment of the trans-well inserts and exposed to different concentrations of F16 (0.1-20 μM) and TMZ (10-400 μM). The lower chamber was filled with 600 μL of EMEM medium supplemented with 10% fetal bovine serum. Then, trans-well plates were incubated at 37° C. under 5% CO2 for 24 h to allow for the migration of U87MG cells across the porous membrane. […] Five different fields per well were captured with a Leica microscope (DMI 3000 B; IL, USA) using 10× magnification, and the number of cells that penetrated the membrane was counted using ImageJ software (NIH Image, Bethesda, Md., USA).

Data set [5] in a line: Tolerability / toxicity study. As to conditions: i.p. twice a week for 4 weeks.
Procedure: For tolerability study, 8-10 weeks old male BALB/c mice weighing approximately 25 g were used (Charles Rivers, US). […] All animals were housed in pathogen-free ventilated cages under environmentally controlled conditions of humidity and temperature (22° C.; 12:12 h light-dark cycle) with free access to pathogen-free food and water. All animal care and experiments were performed in accordance with the guidelines and approval of the Institutional Animal Care and Use Committee (IACUC) of Nova Southeastern University (NSU), Ft. Lauderdale, Fla.
TMZ (50 mg/kg) was dissolved in 10% DMSO+90% phosphate-buffered saline (PBS). All drugs were prepared fresh before the scheduled injection [21]. The total volume of injection was 100 μL/mouse for all experiments which was administered intraperitoneally.
For tolerability studies, BALB/c mice were randomly assigned to 4 different treatment groups (FIG. 15: Table 1). At the end of the treatment period, blood samples from all the mice were collected and sent to the Department of Comparative Pathology at the University of Miami (City of Miami, Fla.) to analyze the hematological and biochemical parameters.
Mice injected with KP were used as controls. All drugs were administered as i.p. injections twice a week for 4 weeks. Independent toxicity evaluations, serum biochemistry, post-mortem gross examination, and histopathological examination of major organs were performed at Comparative Pathology Department at the University of Miami, Fla.
Data set [6] concerns U87MG cells. As to the kind of experiment: Trypan blue dye exclusion method (TBDE). Format: cell-based, human. To be noted: F16 100 μM, TMZ 1000 μM. Here is the method:
The cell viability was assessed using a 3-(4,5-dimethylthiazol-2-yl)-2, 5-diphenyltetrazolium bromide (MTT) assay (Sigma-Aldrich, St. Louis, Mo., USA), and trypan blue dye exclusion method (TBDE). For the MTT assay, U87MG cells were cultured in a 96 well-plate at a density of 5×10^3 per well and incubated at 37° C. under 5% CO2 for 24 h. Then, the cells were treated with different concentrations of F16 (0.1-100 μM) and TMZ (0.1-500 μM) for 24 h. At the end of treatment, the old medium was aspirated, and 10 μL of MTT (0.5 mg/mL in PBS) was added to each well and the cells were incubated at 37° C. for an additional 3 h. Finally, the MTT solution was removed, and 100 μL of dimethyl sulfoxide (DMSO) was added to each well. The plate was gently rotated on an orbital shaker for 10 min to completely dissolve the precipitation and the absorbance was measured at 570 nm using Microplate Reader (VersaMax, Molecular Devices, Sunnyvale, Calif., USA). For the TBDE method, U87MG cells were cultured in a 24 well-plate at a density of 5×10^4 per well and incubated at 37° C. under 5% CO2 for 48 h. Then, the cells were treated with different concentrations of F16 (0.1-100 μM) and TMZ (10-1000 μM). After 24, 48, and 72 h of treatments, an aliquot (50 μL) of the cell suspension from each treatment was mixed with 1:1 (v/v) volume of 0.4% trypan blue. The viable cells were counted with a Bio-Rad TC20™ Automated Cell Counter (Hercules, Calif., USA)

For data set [7], the system named is U87MG derived xenograft tumor. Format: in vivo. As to the method:
Lauderdale, Fla. Animals were subcutaneously injected into the right flank of each mouse, with 4×10^6 of U87MG glioblastoma cancer cells suspended in 100 μL of PBS mixed with Matrigel (BD Biosciences). […] The experimental mice were treated once in every 2 days for the period of 16 days. At the end of the treatment, the tumors were isolated and then the tumor length (L) and width (W) were measured to calculate the tumor volume (TV) according to the formula: TV=1/2×(L×W^2). To determine the tumor inhibitory effects of F16 and TMZ treatments, the inhibition ratio (IR) was calculated using the formula: […]
At the end of the treatment, all the animals in the control and experimental groups were sacrificed and tumors were excised and weighed.

Data set [8] relates to U87MG-luc intracranial xenograft. The data set is described as follows: Intracranial glioblastoma xenograft model with bioluminescence imaging.
Procedure: For tolerability study, 8-10 weeks old male BALB/c mice weighing approximately 25 g were used (Charles Rivers, US). For intracranial study, 8-10 weeks old female athymic nude (Nu/Nu) mice weighing approximately 25 g were used (Taconic Biosciences, US). All animals were housed in pathogen-free ventilated cages under environmentally controlled conditions of humidity and temperature (22° C.; 12:12 h light-dark cycle) with free access to pathogen-free food and water.
F16 (100 mg/kg) was dissolved in a 10% DMSO+90% KolliphorEL (KP). TMZ (50 mg/kg) was dissolved in 10% DMSO+90% phosphate-buffered saline (PBS). All drugs were prepared fresh before the scheduled injection [21]. The total volume of injection was 100 μL/mouse for all experiments which was administered intraperitoneally.
For intracranial study, the glioblastoma xenograft model was developed using athymic nude (Nu/Nu) mice. Briefly, mice were placed under general anesthesia (intraperitoneal injection of 100 mg/kg Ketamine and 10 mg/kg Xylazine) and were positioned in the stereotaxic device. A median incision of ˜1 cm was made, and a burr hole was drilled into the right striatum of the skull (1.0 mm forward and 2.0 mm lateral to the bregma). Subsequently, U87MG cells expressing the luc reporter gene (2×10^5 cells in 3 μL PBS) was injected using a 10-μl Hamilton syringe at the rate of 1 μL/min at a depth of 3 mm. Once injection was completed, the needle was kept in place for 2 minutes and then slowly removed, and the hole was sealed with a sterile bone wax. The incision was closed, and triple antibiotic ointment was applied. One week after tumor cell transplantation, mice were divided randomly into five groups (n=5 in each group): 1) control treated with DMSO in PBS, 2) control treated with DMSO in KP, 3) treated with F16 (100 mg/kg), 4) treated with temozolomide (50 mg/kg) and 5) treated with F16 (100 mg/kg) and 3 h later treated with temozolomide (50 mg/kg). One more group with no tumor implant was added to the study as a negative control (n=5). The experimental mice were treated twice per week for 3 weeks.
Bioluminescence imaging (BLI) was used to assess and confirm tumor growth in intracranial xenograft. BLI was carried out in vivo using the Bruker Xtreme which is a sensitive optical X-ray machine designed for preclinical in vivo study based on BLI concept. Briefly, mice were injected intraperitoneally with D-luciferin (Sigma) dissolved in saline at a dose of 150 mg/kg body weight. Immediately after the injection, mice were anesthetized by isoflurane and series of bioluminescent images was acquired with 3-minutes acquisition intervals for approximately 20 minutes, by which time, the luciferin had been washed out. The image with the peak BLI intensity was used for quantification in units of photon counts.
A further data set concerns recurrent GBM. To be noted: cited from earlier work.

Entries after “also recorded” stand apart in the source; their conditions may differ.

What is called IC50 is the concentration that inhibits the measured activity by half. Regarding `Cn1nnc2c(C(N)=O)ncn2c1=O` [TMZ, Temozolomide, reference compound], the “TMZ treated patients who develop significant toxicity” value in [1] was 15-20%. The “levels of TMZ in the brain as % of the plasma concentration” value in data set [2] is 30-40%. Moreover, the IC50 in the data set with U87MG cells [3] is 430 µM. Besides, the “U87MG cells trapped in the upper compartment as compared to untreated cells” value in the data set on U87MG cells [4] was “About 80%”. Moreover, in [5], the “ALT level (liver function)” value was “Significant elevation; also recorded: significantly elevating”, the “BUN levels (kidney function)” value is given as “No significant changes”, the RBC entry was “slight increase” and the WBC counts result is listed as “significant increase”. In addition, the hematocrit entry in data set [5] was “slight increase”. Besides, the “maximum percentage of U87MG cells death” value in the data set on U87MG cells [6] (24 h) came out at 68%. Also, the “maximum percentage of U87MG cells death” value in the data set on U87MG cells [6] (48 h) is on record as 95%. Further, the “maximum percentage of U87MG cells death” value with U87MG cells [6] (72 h) worked out at 82%. In addition, in data set [7] (i.p., once every 2 days for 16 days, F16 100 mg/kg, TMZ 50 mg/kg, combination of both), the “suppression of tumor growth” value is reported as 53%. In data set [7] (mouse, in vivo), the “signs of toxicity / tolerability” value is “symptoms of toxicity”. For the same molecule, in [8] (compared to mice treated with vehicles (PBS/KP)), the body weight result is given as “No significant change”. Further, the tumor inhibition in data set [8] (intracranial xenograft model) is 99%. Moreover, in [8] (mouse, in vivo), the “condition of excised brains” value is “fragile and damaged”; the “mice that lived until day 50 post implantation” value came out at 60%. This molecule also displayed a median survival in [8] (vehicles-PBS 34 days, vehicles-KP 36 days) of 47 days.

As for Bevacizumab [BVZ], the “overall survival (OS)” value in the data set with recurrent GBM (patients with (recurrent) GBM) is on record as “no improvement; also recorded: failed to improve”. Also, the “progression free survival (PFS)” value in the data set on recurrent GBM (recurrent GBM) was “did improve”.

The record behind these values is patent publication US20220409581A1, “METHODS AND COMPOSITIONS FOR TREATMENT OF SOLID TUMORS USING F16 ISOINDOLE SMALL MOLECULES” (Nova Southeastern University, priority 2019, published 2022).
